Patent US20250325711A1, “COVALENT FLUORESCENT PROBES FOR CANNABINOID RECEPTOR 2” (Hoffmann-La Roche Inc., priority 2022, published 2025)

The molecules below were run against hCB2R (Homo sapiens (Human), UniProt P34972) (assay: TR-FRET hCB2R Binding Assay). Conditions: not given.
Molecule `COc1cc(C(C)(C)CCCCCCN=[N+]=[N-])cc(OC)c1[C@H]1C=C(CNC(=O)CCCCCCCCNC(=O)c2ccc(=O)n(S(=O)(=O)c3cccc(C(=O)NCc4cn(CCOCCNc5ccc([N+](=O)[O-])c6nonc56)nn4)c3)c2)[C@H]2C[C@@H]1C2(C)C` [Example 7, N-(9-((((1S,4S,5S)-4-(4-(8-azido-2-methyloctan-2-yl)-2,6-dimethoxyphenyl)-6,6-dimethylbicyclo[3.1.1]hept-2-en-2-yl)methyl)amino)-9-oxononyl)-1-((3-(((1-(2-(2-((7-nitrobenzo[c][1,2,5]oxadiazol-4-yl)amino)ethoxy)ethyl)-1H-1,2,3-triazol-4-yl)methyl)carbamoyl)phenyl)sulfonyl)-6-oxo-1,6-dihydropyridine-3-carboxamide] has a Kd of 8.9 nM.

Same assay, conditions: SNAP-tagged human CB2R HEK293-TR cell membranes, TR-FRET (HTRF) detection, nonspecific binding with 1 μM SR144528; read-out: Kd hCB2R
In the case of `COc1cc(C(C)(C)CCCCCCN=[N+]=[N-])cc(OC)c1[C@H]1C=C(CNC(=O)CCCCNC(=O)c2ccc(=O)n(S(=O)(=O)c3cccc(C(=O)NCCc4cn(CCOCCNc5ccc([N+](=O)[O-])c6nonc56)nn4)c3)c2)[C@H]2C[C@@H]1C2(C)C` [Example 1, N-(5-((((1S,4S,5S)-4-(4-(8-azido-2-methyloctan-2-yl)-2,6-dimethoxyphenyl)-6,6-dimethylbicyclo[3.1.1]hept-2-en-2-yl)methyl)amino)-5-oxopentyl)-1-((3-((2-(1-(2-(2-((7-nitrobenzo[c][1,2,5]oxadiazol-4-yl)amino)ethoxy)ethyl)-1H-1,2,3-triazol-4-yl)ethyl)carbamoyl)phenyl)sulfonyl)-6-oxo-1,6-dihydropyridine-3-carboxamide], the Kd is reported as 9.1 nM.
For `COc1cc(C(C)(C)CCCCCCN=[N+]=[N-])cc(OC)c1[C@H]1C=C(CNC(=O)CCCCCCNC(=O)c2ccc(=O)n(S(=O)(=O)c3cccc(C(=O)NCc4cn(CCOCCNc5ccc([N+](=O)[O-])c6nonc56)nn4)c3)c2)[C@H]2C[C@@H]1C2(C)C` [Example 2, N-(7-((((1S,4S,5S)-4-(4-(8-azido-2-methyloctan-2-yl)-2,6-dimethoxyphenyl)-6,6-dimethylbicyclo[3.1.1]hept-2-en-2-yl)methyl)amino)-7-oxoheptyl)-1-((3-(((1-(2-(2-((7-nitrobenzo[c][1,2,5]oxadiazol-4-yl)amino)ethoxy)ethyl)-1H-1,2,3-triazol-4-yl)methyl)carbamoyl)phenyl)sulfonyl)-6-oxo-1,6-dihydropyridine-3-carboxamide], the Kd was 22.9 nM.
For `CCCCCCC(C)(C)c1cc(OC)c([C@H]2C=C(CNC(=O)CCCCCCNC(=O)c3ccc(=O)n(S(=O)(=O)c4cccc(C(=O)NCc5cn(CCOCCNc6ccc([N+](=O)[O-])c7nonc67)nn5)c4)c3)[C@H]3C[C@@H]2C3(C)C)c(OC)c1` [Example 3, N-(7-((((1S,4S,5S)-4-(2,6-dimethoxy-4-(2-methyloctan-2-yl)phenyl)-6,6-dimethylbicyclo[3.1.1]hept-2-en-2-yl)methyl)amino)-7-oxoheptyl)-1-((3-(((1-(2-(2-((7-nitrobenzo[c][1,2,5]oxadiazol-4-yl)amino)ethoxy)ethyl)-1H-1,2,3-triazol-4-yl)methyl)carbamoyl)phenyl)sulfonyl)-6-oxo-1,6-dihydropyridine-3-carboxamide], the Kd was 24.2 nM.
For `COc1cc(C(C)(C)CCCCCCN=[N+]=[N-])cc(OC)c1[C@H]1C=C(CNC(=O)CCCCCCNC(=O)c2ccc(=O)n(S(=O)(=O)c3cccc(C(=O)NCc4cn(CCOCCOCCOCCOCCNc5ccc([N+](=O)[O-])c6nonc56)nn4)c3)c2)[C@H]2C[C@@H]1C2(C)C` [Example 4, N-(7-((((1S,4S,5S)-4-(4-(8-azido-2-methyloctan-2-yl)-2,6-dimethoxyphenyl)-6,6-dimethylbicyclo[3.1.1]hept-2-en-2-yl)methyl)amino)-7-oxoheptyl)-1-((3-(((1-(14-((7-nitrobenzo[c][1,2,5]oxadiazol-4-yl)amino)-3,6,9,12-tetraoxatetradecyl)-1H-1,2,3-triazol-4-yl)methyl)carbamoyl)phenyl)sulfonyl)-6-oxo-1,6-dihydropyridine-3-carboxamide], the Kd was 4.5 nM.
Work on `CCN(CC)c1ccc2cc(C=Cc3ccc(S(=O)(=O)[O-])c[n+]3CCCCCC(=O)NCCOCCn3cc(CNC(=O)c4cccc(S(=O)(=O)n5cc(C(=O)NCCCCCCC(=O)NCC6=C[C@H](c7c(OC)cc(C(C)(C)CCCCCCN=[N+]=[N-])cc7OC)[C@@H]7C[C@H]6C7(C)C)ccc5=O)c4)nn3)c(=O)oc2c1` [Example 5, 1-(6-((2-(2-(4-((3-((5-((7-((((1S,4S,5S)-4-(4-(8-azido-2-methyloctan-2-yl)-2,6-dimethoxyphenyl)-6,6-dimethylbicyclo[3.1.1]hept-2-en-2-yl)methyl)amino)-7-oxoheptyl)carbamoyl)-2-oxopyridin-1 (2H)-yl)sulfonyl)benzamido)methyl)-1H-1,2,3-triazol-1-yl)ethoxy)ethyl)amino)-6-oxohexyl)-6-(2-(7-(diethylamino)-2-oxo-2H-chromen-3-yl)vinyl)pyridin-1-ium-3-sulfonate] yielded a Kd of 59 nM.
`COc1cc(C(C)(C)CCCCCCN=[N+]=[N-])cc(OC)c1[C@H]1C=C(CNC(=O)CCCCCCNC(=O)c2ccc(S(=O)(=O)N(Cc3ccccn3)C(=O)CCCCCNc3ccc([N+](=O)[O-])c4nonc34)cc2)[C@H]2C[C@@H]1C2(C)C` [Example 8, N-(7-((((1S,4S,5S)-4-(4-(8-azido-2-methyloctan-2-yl)-2,6-dimethoxyphenyl)-6,6-dimethylbicyclo[3.1.1]hept-2-en-2-yl)methyl)amino)-7-oxoheptyl)-4-(N-(6-((7-nitrobenzo[c][1,2,5]oxadiazol-4-yl)amino)hexanoyl)-N-(pyridin-2-ylmethyl)sulfamoyl)benzamide] showed a Kd of 12 nM.
For `CCCCCCC(C)(C)c1cc(OC)c([C@H]2C=C(CNC(=O)CCCCCCNC(=O)c3ccc(S(=O)(=O)N(Cc4ccccn4)C(=O)CCCCCNc4ccc([N+](=O)[O-])c5nonc45)cc3)[C@H]3C[C@@H]2C3(C)C)c(OC)c1` [Example 9, N-(7-((((1S,4S,5S)-4-(2,6-dimethoxy-4-(2-methyloctan-2-yl)phenyl)-6,6-dimethylbicyclo[3.1.1]hept-2-en-2-yl)methyl)amino)-7-oxoheptyl)-4-(N-(6-((7-nitrobenzo[c][1,2,5]oxadiazol-4-yl)amino)hexanoyl)-N-(pyridin-2-ylmethyl)sulfamoyl)benzamide], the Kd was 35.5 nM.
Work on `COc1cc(C(C)(C)CCCCCCN=[N+]=[N-])cc(OC)c1[C@H]1C=C(CNC(=O)CCCCCCNC(=O)c2ccc(S(=O)(=O)N(CC#N)C(=O)CCCCCNc3ccc([N+](=O)[O-])c4nonc34)cc2)[C@H]2C[C@@H]1C2(C)C` [Example 10, N-(7-((((1S,4S,5S)-4-(4-(8-azido-2-methyloctan-2-yl)-2,6-dimethoxyphenyl)-6,6-dimethylbicyclo[3.1.1]hept-2-en-2-yl)methyl)amino)-7-oxoheptyl)-4-(N-(cyanomethyl)-N-(6-((7-nitrobenzo[c][1,2,5]oxadiazol-4-yl)amino)hexanoyl)sulfamoyl)benzamide] yielded a Kd of 3.9 nM.
Work on `COc1cc(C(C)(C)CCCCCCN=[N+]=[N-])cc(OC)c1[C@H]1C=C(CNC(=O)CCCCCCNC(=O)c2ccc(S(=O)(=O)N(CC#N)C(=O)CCc3cn(CCOCCNc4ccc([N+](=O)[O-])c5nonc45)nn3)cc2)[C@H]2C[C@@H]1C2(C)C` [Example 11, N-(7-((((1S,4S,5S)-4-(4-(8-azido-2-methyloctan-2-yl)-2,6-dimethoxyphenyl)-6,6-dimethylbicyclo[3.1.1]hept-2-en-2-yl)methyl)amino)-7-oxoheptyl)-4-(N-(cyanomethyl)-N-(3-(1-(2-(2-((7-nitrobenzo[c][1,2,5]oxadiazol-4-yl)amino)ethoxy)ethyl)-1H-1,2,3-triazol-4-yl)propanoyl)sulfamoyl)benzamide] yielded a Kd of 152 nM.
Work on `CCN(CC)c1ccc2cc(C=Cc3ccc(S(=O)(=O)[O-])c[n+]3CCCCCC(=O)NCCOCCn3cc(CCC(=O)N(CC#N)S(=O)(=O)c4ccc(C(=O)NCCCCCCC(=O)NCC5=C[C@H](c6c(OC)cc(C(C)(C)CCCCCCN=[N+]=[N-])cc6OC)[C@@H]6C[C@H]5C6(C)C)cc4)nn3)c(=O)oc2c1` [Example 12, 1-(6-((2-(2-(4-(3-((4-((7-((((1S,4S,5S)-4-(4-(8-azido-2-methyloctan-2-yl)-2,6-dimethoxyphenyl)-6,6-dimethylbicyclo[3.1.1]hept-2-en-2-yl)methyl)amino)-7-oxoheptyl)carbamoyl)-N-(cyanomethyl)phenyl)sulfonamido)-3-oxopropyl)-1H-1,2,3-triazol-1-yl)ethoxy)ethyl)amino)-6-oxohexyl)-6-(2-(7-(diethylamino)-2-oxo-2H-chromen-3-yl)vinyl)pyridin-1-ium-3-sulfonate] yielded a Kd of 25 nM.
In the case of `COc1cc(C(C)(C)CCCCCCN=[N+]=[N-])cc(OC)c1[C@H]1C=C(CNC(=O)CCCCCCNC(=O)c2ccc(S(=O)(=O)N(CC#N)C(=O)CCc3cn(CCOCCNC(=O)c4ccc5c(c4)C4(OC5=O)c5ccc(N6CCC6)cc5[Si](C)(C)c5cc(N6CCC6)ccc54)nn3)cc2)[C@H]2C[C@@H]1C2(C)C` [Example 13, 3,7-di(azetidin-1-yl)-N-(2-(2-(4-(3-((4-((7-((((1S,4S,5S)-4-(4-(8-azido-2-methyloctan-2-yl)-2,6-dimethoxyphenyl)-6,6-dimethylbicyclo[3.1.1]hept-2-en-2-yl)methyl)amino)-7-oxoheptyl)carbamoyl)-N-(cyanomethyl)phenyl)sulfonamido)-3-oxopropyl)-1H-1,2,3-triazol-1-yl)ethoxy)ethyl)-5,5-dimethyl-3′-oxo-3′H,5H-spiro[dibenzo[b,e]siline-10,1′-isobenzofuran]-6′-carboxamide], the Kd is reported as 124 nM.
Work on `C#CCCC(=O)N(CC#N)S(=O)(=O)c1ccc(C(=O)NCCCCCCC(=O)NCC2=C[C@H](c3c(OC)cc(C(C)(C)CCCCCCN=[N+]=[N-])cc3OC)[C@@H]3C[C@H]2C3(C)C)cc1` [Example 14, N-(7-((((1S,4S,5S)-4-(4-(8-azido-2-methyloctan-2-yl)-2,6-dimethoxyphenyl)-6,6-dimethylbicyclo[3.1.1]hept-2-en-2-yl)methyl)amino)-7-oxoheptyl)-4-(N-(cyanomethyl)-N-(pent-4-ynoyl)sulfamoyl)benzamide] yielded a Kd of 1.5 nM.
